Measured values: PMC9643456, “Matching amino acids membrane preference profile to improve activity of antimicrobial peptides” (Communications Biology, 2022)
Values after ≈ are worked out from the molar mass of the structure shown. Values joined by “and” are separate entries in the source; they are usually repeats but may differ in a detail not shown here. Identical values can stand only once. Square brackets hold non-standard residues; d marks the D form. Peptide text beside a SMILES is read from it.

Key:
[1] = test system: human red blood cells; assay: Hemolytic activity; type: cell-based
Procedure, shortened: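 Haemolysis was read as A540 of cleared supernatants after 18 h at 37 °C, with 0% and 100% lysis set by peptide-free PBS and 1% Triton X-100 and melittin as positive control. Human RBCs were at 4% final, peptide serially diluted 100–0.78 μM; three replicates.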

[2] = test system: MDR A. baumannii; assay: microbe, parasite or virus in culture
Procedure, shortened: (§1)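 MIC was read by eye as the lowest peptide concentration leaving no visible turbidity. Peptide and mid-log cells (final 5 × 10^5 CFU/ml) were combined in cation-adjusted Mueller–Hinton broth containing 50 mg/L calcium and 10 mg/L magnesium and incubated 18 h at 37 °C.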

[3] = test system: MDR S. aureus; assay: microbe, parasite or virus in culture; settings: CLSI broth microdilution; CAMHB with 50 mg/L Ca2+, 10 mg/L Mg2+; 5 × 10^5 CFU/ml; 18 h 37 °C; triplicate; strain KCCM 40510
Procedure, shortened: as §1

[4] = test system: MDR P. aeruginosa; assay: microbe, parasite or virus in culture; settings: for Minimum inhibitory concentrations, MDR P. aeruginosa: CLSI broth microdilution, CAMHB with 50 mg/L Ca2+, 10 mg/L Mg2+, 5 × 10^5 CFU/ml, 18 h 37 °C, no visible turbidity, triplicate, strain CCARM 2180
Procedure, shortened: as §1

[5] = test system: A. baumannii strains; assay: microbe, parasite or virus in culture; settings: for Number of A. baumannii strains at MIC (μM) 0.63 / Number of A. baumannii strains at MIC (μM) 1.25 / Number of A. baumannii strains at MIC (μM) 2.5 / Number of A. baumannii strains at MIC (μM) 5 / Number of A. baumannii strains at MIC (μM) 10 / Number of A. baumannii strains at MIC (μM) ≤0.31 / Number of A. baumannii strains at MIC (μM) ≥20: of 30 strains
Procedure: Twenty-six A. baumannii strains were clinically isolated and gifted to us by the Kyungpook National University School of Medicine. One A. baumannii strain (ATCC 17978) was purchased and gifted to us by Kyungpook National University School of Medicine. One A. baumannii strain and 10 K. pneumoniae strains (NCCP) were purchased from the National Culture Collection for Pathogens.
To assess antimicrobial activity, the MIC50 and MIC90 were measured using broth microdilution following CLSI guidelines. […] Each experiment was performed in triplicate. Meropenem (Sigma, Darmstadt, Germany) and colistin were used as control antibiotics. Cation-adjusted Mueller–Hinton broth (CAMHB) (Becton, Dickinson and Company, Franklin Lakes, USA) with supplied calcium (50 mg/L) and magnesium (10 mg/L) was used for the CLSI-test condition. Bacteria in midlog phase and peptides were separately diluted in CAMHB. The bacteria and peptide solutions were then mixed in 96-well polyethylene plates (SPL, Gyeonggi-do, Korea) and incubated for 18 h at 37 °C. The final concentration for bacteria was 5 × 10^5 CFU/ml. […] The MIC was defined to be the lowest concentration of peptide without visible turbidity by comparing with control antibiotics with the unaided eye. […] Each experiment was performed in triplicate. MICs in albumin and acetic acid solutions were measured using the same protocol but with 0.2% bovine serum albumin (Bovogen, Keilor, Australia), 0.01% acetic acid (Merck, New Jersey, USA), and CAMHB with both calcium and magnesium. In addition, MICs used in the antibiotic resistance acquisition test, the outer–inner membrane permeation test, and the transmembrane potential test and for FE-SEM were individually determined. The final bacterial concentrations used were as follows: for resistance acquisition, optical density (OD) 0.01; for outer–inner membrane permeability assays (LB), OD 0.1; for the transmembrane potential test, 1 × 10^8 CFU/ml (OD 0.171); […]. Inhibitory activity unidentifiable by direct observation was determined by counting the CFUs. Each experiment was performed at least twice.

[6] = CAMHB plus 0.2% bovine serum albumin and 0.01% acetic acid, values marked * in Table 2

Compound: CC[C@@H](C)[C@@H](NC(=O)[C@@H](Cc1c[nH]c2ccccc12)NC(=O)[C@@H](CCCNC(=N)N)NC(=O)[C@@H](CCCNC(=N)N)NC(=O)[C@H](N)CCCNC(=N)N)C(=O)N[C@H](Cc1c[nH]c2ccccc12)C(=O)N[C@@H](C(=O)N[C@@H](C(=O)N[C@H](Cc1c[nH]c2ccccc12)C(=O)N[C@H](CCCCN)C(N)=O)[C@H](C)CC)C(C)C [WCopW43] (H-[dR][dR][dR][dW][dI][dW][dV][dI][dW][dK]-NH2)
- Hemolysis percent, 25 μM ([1]; red cells of human, 18 h, 25): 1.12 ± 0.20%
- Hemolysis percent, 50 μM ([1]; red cells of human, 18 h, 50): 2.22 ± 0.67%
- Hemolysis percent, 100 μM ([1]; red cells of human, 18 h, 100): 5.02 ±0.63%
- Minimum inhibitory concentrations, MDR A. baumannii ([2]; CLSI broth microdilution, CAMHB with 50 mg/L Ca2+, 10 mg/L Mg2+, 5 × 10^5 CFU/ml, 18 h 37 °C, triplicate, strain ATCC BAA-1605): 0.63 µM (≈ 0.944 µg/mL)
- Minimum inhibitory concentrations, MDR S. aureus [3]: 0.63 µM (≈ 0.944 µg/mL)
- Minimum inhibitory concentrations, MDR P. aeruginosa [4]: 1.25 µM (≈ 1.87 µg/mL)
- Number of A. baumannii strains at MIC (μM) 0.63 [5]: 15
- Number of A. baumannii strains at MIC (μM) 1.25 [5]: 14
- Number of A. baumannii strains at MIC (μM) 2.5 [5]: 0
- Number of A. baumannii strains at MIC (μM) 5 [5]: 0
- Number of A. baumannii strains at MIC (μM) 10 [5]: 0
- Number of A. baumannii strains at MIC (μM) ≤0.31 [5]: 1
- Number of A. baumannii strains at MIC (μM) ≥20 [5]: 0
- MIC50 ([5]; strains, 18 h): 0.63 µM (≈ 0.944 µg/mL)
- MIC, A. baumannii ATCC 17978 ([5]; strains, 18 h): 1.25 µM (≈ 1.87 µg/mL)
- MIC, A. baumannii Isolated strain 1 ([5]; strains, 18 h): 1.25 µM (≈ 1.87 µg/mL)
- MIC, A. baumannii Isolated strain 3 ([5]; strains, 18 h): 1.25 µM (≈ 1.87 µg/mL)
- MIC, A. baumannii Isolated strain 6 ([5]; strains, 18 h): 0.63 µM (≈ 0.944 µg/mL)
- MIC, A. baumannii Isolated strain 10 ([5]; strains, 18 h): 0.63 µM (≈ 0.944 µg/mL)
- MIC, A. baumannii Isolated strain 14 ([5]; strains, 18 h): 1.25 µM (≈ 1.87 µg/mL)
- MIC, A. baumannii Isolated strain 15 ([5]; strains, 18 h): 0.63 µM (≈ 0.944 µg/mL)
- MIC, A. baumannii Isolated strain 16 ([5]; strains, 18 h): 1.25 µM (≈ 1.87 µg/mL)
- MIC, A. baumannii Isolated strain 19 ([5]; strains, 18 h): 0.63 µM (≈ 0.944 µg/mL)
- MIC, A. baumannii Isolated strain 22 ([5]; strains, 18 h): 0.63 µM (≈ 0.944 µg/mL)
- MIC, A. baumannii Isolated strain 39 ([5]; strains, 18 h): 0.63 µM (≈ 0.944 µg/mL)
- MIC, A. baumannii Isolated strain 44 ([5]; strains, 18 h): 1.25 µM (≈ 1.87 µg/mL)
- MIC, A. baumannii Isolated strain 66 ([5]; strains, 18 h): 1.25 µM (≈ 1.87 µg/mL)
- MIC, A. baumannii Isolated strain 68 ([5]; strains, 18 h): 1.25 µM (≈ 1.87 µg/mL)
- MIC, A. baumannii Isolated strain 69 ([5]; strains, 18 h): 0.63 µM (≈ 0.944 µg/mL)
- MIC, A. baumannii Isolated strain 71 ([5]; strains, 18 h): 0.63 µM (≈ 0.944 µg/mL)
- MIC, A. baumannii Isolated strain 76 ([5]; strains, 18 h): < 0.31 µM
- MIC, A. baumannii Isolated strain 80 ([5]; strains, 18 h): 0.63 µM (≈ 0.944 µg/mL)
- MIC, A. baumannii Isolated strain 82 ([5]; strains, 18 h): 0.63 µM (≈ 0.944 µg/mL)
- MIC, A. baumannii Isolated strain 86 ([5]; strains, 18 h): 0.63 µM (≈ 0.944 µg/mL)
- MIC, A. baumannii Isolated strain 89 ([5]; strains, 18 h): 1.25 µM (≈ 1.87 µg/mL)
- MIC, A. baumannii Isolated strain 102 ([5]; strains, 18 h): 0.63 µM (≈ 0.944 µg/mL)
- MIC, A. baumannii Isolated strain 127 ([5]; strains, 18 h): 1.25 µM (≈ 1.87 µg/mL)
- MIC, A. baumannii Isolated strain 141 ([5]; strains, 18 h): 0.63 µM (≈ 0.944 µg/mL)
- MIC, A. baumannii Isolated strain 144 ([5]; strains, 18 h): 1.25 µM (≈ 1.87 µg/mL)
- MIC, A. baumannii Isolated strain 147 ([5]; strains, 18 h): 1.25 µM (≈ 1.87 µg/mL)
- MIC, A. baumannii Isolated strain 152 ([5]; strains, 18 h): 0.63 µM (≈ 0.944 µg/mL)
- MIC, A. baumannii KCCM 40203 ([5]; strains, 18 h): 0.63 µM (≈ 0.944 µg/mL)
- MIC, A. baumannii NCCP 14654 ([5]; strains, 18 h): 1.25 µM (≈ 1.87 µg/mL)

Compound: Colistin
- Hemolysis percent, 25 μM ([1]; peptide 25 μM, 8% human red blood cells in PBS (final 4%), 18 h 37 °C, absorbance 540 nm, 1% Triton X-100 = 100%, triplicate): 0.24 ±0.09%
- Hemolysis percent, 50 μM ([1]; peptide 50 μM, 8% human red blood cells in PBS (final 4%), 18 h 37 °C, absorbance 540 nm, 1% Triton X-100 = 100%, triplicate): 0.31%
- Hemolysis percent, 100 μM ([1]; peptide 100 μM, 8% human red blood cells in PBS (final 4%), 18 h 37 °C, absorbance 540 nm, 1% Triton X-100 = 100%, triplicate): 0.39 ±0.06%
- MIC in 0.2% albumin and 0.01% AcOH added CLSI standard condition, MDR A. baumannii [2, 6]: ≤ 0.15 µM
- MIC in 0.2% albumin and 0.01% AcOH added CLSI standard condition, MDR P. aeruginosa [4, 6]: ≤ 0.15 µM
- Minimum inhibitory concentrations, MDR P. aeruginosa [4]: 1.25 µM and 0.63 µM
- MIC50 ([5]; 30 A. baumannii strains, including 27 carbapenem-resistant, CLSI broth microdilution): 0.63 µM
- MIC, A. baumannii ATCC 17978 ([5]; CLSI): 0.63 µM
- MIC, A. baumannii ATCC BBA 1605 ([5]; CLSI): 0.63 µM
- MIC, A. baumannii Isolated strain 1 ([5]; CLSI): 0.63 µM
- MIC, A. baumannii Isolated strain 3 ([5]; CLSI): > 20 µM
- MIC, A. baumannii Isolated strain 6 ([5]; CLSI): 2.5 µM
- MIC, A. baumannii Isolated strain 10 ([5]; CLSI): 2.5 µM
- MIC, A. baumannii Isolated strain 14 ([5]; CLSI): 1.25 µM
- MIC, A. baumannii Isolated strain 15 ([5]; CLSI): 0.63 µM
- MIC, A. baumannii Isolated strain 16 ([5]; CLSI): < 0.31 µM
- MIC, A. baumannii Isolated strain 19 ([5]; CLSI): < 0.31 µM
- MIC, A. baumannii Isolated strain 22 ([5]; CLSI): 1.25 µM
- MIC, A. baumannii Isolated strain 39 ([5]; CLSI): < 0.31 µM
- MIC, A. baumannii Isolated strain 44 ([5]; CLSI): 1.25 µM
- MIC, A. baumannii Isolated strain 66 ([5]; CLSI): 1.25 µM
- MIC, A. baumannii Isolated strain 68 ([5]; CLSI): 0.63 µM
- MIC, A. baumannii Isolated strain 69 ([5]; CLSI): 1.25 µM
- MIC, A. baumannii Isolated strain 71 ([5]; CLSI): 1.25 µM
- MIC, A. baumannii Isolated strain 76 ([5]; CLSI): < 0.31 µM
- MIC, A. baumannii Isolated strain 80 ([5]; CLSI): 0.63 µM
- MIC, A. baumannii Isolated strain 82 ([5]; CLSI): 0.63 µM
- MIC, A. baumannii Isolated strain 86 ([5]; CLSI): 0.63 µM
- MIC, A. baumannii Isolated strain 89 ([5]; CLSI): 2.5 µM
- MIC, A. baumannii Isolated strain 102 ([5]; CLSI): 0.63 µM
- MIC, A. baumannii Isolated strain 127 ([5]; CLSI): 0.63 µM
- MIC, A. baumannii Isolated strain 141 ([5]; CLSI): < 0.31 µM
- MIC, A. baumannii Isolated strain 144 ([5]; CLSI): 0.63 µM
- MIC, A. baumannii Isolated strain 147 ([5]; CLSI): 5 µM
- MIC, A. baumannii Isolated strain 152 ([5]; CLSI): 1.25 µM
- MIC, A. baumannii KCCM 40203 ([5]; CLSI): 0.63 µM
- MIC, A. baumannii NCCP 14654 ([5]; CLSI): 1.25 µM
- Number of A. baumannii strains at MIC (μM) 0.63 [5]: 12
- Number of A. baumannii strains at MIC (μM) 1.25 [5]: 8
- Number of A. baumannii strains at MIC (μM) 2.5 [5]: 3
- Number of A. baumannii strains at MIC (μM) 5 [5]: 1
- Number of A. baumannii strains at MIC (μM) 10 [5]: 0
- Number of A. baumannii strains at MIC (μM) ≤0.31 [5]: 5
- Number of A. baumannii strains at MIC (μM) ≥20 [5]: 1
